Tested on: NCI-H295R
Test: IC50 (antiproliferative, ATP content)
Conditions: 48 h
Summary of the method: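 Serum-free ITS-supplemented DMEM was used to seed 1500 adrenocortical carcinoma cells per well in 1536-well plates, which were cultured overnight. Eight final concentrations of each library compound, from 0.6 nM to 46 µM, were added by pin transfer, followed by 48 h at 37 °C in 5% CO2 and a CellTiter-Glo ATP read after 20 min at room temperature. Luminescence was set against vehicle and positive-control wells, and the IC50 was obtained by logistic curve fitting. Any compound with no concentration response was entered as above the top dose.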

Row | IC50 [µM] | Structure (SMILES)
1 | > 46 | CC(N)C12CC3CC(CC(C3)C1)C2.Cl (centres undefined)
2 | > 46 | Cc1ccc(C(=O)C(C)CN2CCCCC2)cc1.Cl (centres undefined)
3 | > 46 | CCCC(O)C(CC)CO (centres undefined)
4 | > 46 | O=C1c2ccccc2CN2C(=O)c3ccccc3CN12
5 | > 46 | CC(=O)OCC(=O)NCCCOc1cccc(CN2CCCCC2)c1.Cl
6 | > 46 | CN1CCN(C(c2ccccc2)c2ccc(Cl)cc2)CC1.Cl (centres undefined)
7 | > 46 | CC1=C(/C=C/C(C)=C/C=C/C(C)=C/C(=O)O)C(C)(C)CCC1
8 | > 46 | COc1ccc(C2C(=O)c3ccccc3C2=O)cc1
9 | > 46 | NCCc1ccc(O)c(O)c1
10 | > 46 | O=C(O)COc1ccc(CCNS(=O)(=O)c2ccccc2)s1
11 | > 46 | C=CCN1C(=O)C(CC(C)C)NC1=S (centres undefined)
12 | > 46 | O=C(O)CCC/C=C\C[C@@H]1[C@@H](/C=C/[C@@H](O)COc2cccc(C(F)(F)F)c2)[C@H](O)C[C@@H]1O
13 | > 46 | CCN1CC(CCN2CCOCC2)C(c2ccccc2)(c2ccccc2)C1=O.Cl (centres undefined)
14 | > 46 | Cl.NC(CO)C(=O)NNCc1ccc(O)c(O)c1O (centres undefined)
15 | > 46 | CC(=O)Nc1c(I)c(C(=O)N[C@H]2C(O)O[C@H](CO)[C@@H](O)[C@@H]2O)c(I)c(N(C)C(C)=O)c1I (some centres undefined)
16 | > 46 | CC(=O)Nc1cccc(O)c1
17 | > 46 | C/C=C/C[C@@H](C)[C@@H](O)[C@H]1C(=O)N[C@@H](CC)C(=O)N(C)CC(=O)N(C)[C@@H](CC(C)C)C(=O)N[C@@H](C(C)C)C(=O)N(C)[C@@H](CC(C)C)C(=O)N[C@@H](C)C(=O)N[C@H](C)C(=O)N(C)[C@@H](CC(C)C)C(=O)N(C)[C@@H](CC(C)C)C(=O)N(C)[C@@H](C(C)C)C(=O)N1C
18 | > 46 | O=C1CN(N=Cc2ccc(-c3ccc([N+](=O)[O-])cc3)o2)C(=O)[N-]1.[Na+]
19 | > 46 | CC[C@H]1OC(=O)C[C@@H](O)[C@H](C)[C@@H](O[C@@H]2O[C@H](C)[C@@H](O)[C@H](N(C)C)[C@H]2O)[C@@H](CCN2C[C@H](C)C[C@H](C)C2)C[C@@H](C)C(=O)/C=C/C(C)=C/[C@@H]1CO[C@@H]1O[C@H](C)[C@@H](O)[C@@H](OC)[C@H]1OC
20 | > 46 | COc1ccc(-c2cc(C(F)F)nn2-c2ccc(S(N)(=O)=O)cc2)cc1F
21 | > 46 | CCc1cccc2c3c([nH]c12)C(CC)(CC(=O)O)OCC3 (centres undefined)
22 | > 46 | CC(O)Cn1cnc2c1c(=O)n(C)c(=O)n2C (centres undefined)
23 | > 46 | CC(=O)O.N=C(N)NCCC[C@H](NC(=O)[C@@H]1CCCN1C(=O)[C@@H]1CSSC[C@H](N)C(=O)N[C@@H](Cc2ccc(O)cc2)C(=O)N[C@@H](Cc2ccccc2)C(=O)N[C@@H](CCC(N)=O)C(=O)N[C@@H](CC(N)=O)C(=O)N1)C(=O)NCC(N)=O
24 | > 46 | O=c1[nH]c(=O)n([C@H]2C[C@H](O)[C@@H](CO)O2)cc1/C=C/Br

Row | IC50 [µM] | Structure (SMILES)
25 | > 46 | CCOc1ccc(/N=C(\C)Nc2ccc(OCC)cc2)cc1
26 | > 46 | C[C@H](Cn1cnc2c(N)ncnc21)OCP(=O)(O)O
27 | > 46 | C[S+](CC[C@H](N)C(=O)O)C[C@H]1O[C@@H](n2cnc3c(N)ncnc32)[C@H](O)[C@@H]1O.[Cl-] (some centres undefined)
28 | > 46 | COC(F)(F)C(Cl)Cl
29 | > 46 | CCOc1cc(OCC)c(C(=O)CCC(=O)O)cc1OCC
30 | > 46 | N[C@@H]1CONC1=O
31 | > 46 | CNC[C@H](O)[C@@H](O)[C@@H](O)[C@H](O)CO.Cc1c(Nc2ncccc2C(=O)O)cccc1C(F)(F)F
32 | > 46 | Cn1c(=O)c2c(ncn2CC(O)CO)n(C)c1=O (centres undefined)
33 | > 46 | O=[C@](COC(C(C)(C)C)=O)[C@@H]2[C@](CC1)(C)[C@](CC2)([H])[C@@](CC4)([H])[C@@]1([H])[C@](CC3)(C)C4=CC3=O
34 | > 46 | CC1(C)CCC(C)(C)c2cc(NC(=O)c3ccc(C(=O)O)cc3)ccc21
35 | > 46 | CN(C)CCCOc1nn(Cc2ccccc2)c2ccccc12.Cl
36 | > 46 | CC(=O)OCC1=C(C(=O)O)N2C(=O)[C@@H](NC(=O)Cc3cccs3)[C@H]2SC1
37 | > 46 | CCC(=O)NCC[C@@H]1CCc2ccc3c(c21)CCO3
38 | > 46 | Cl.N=C(N)NC(=N)N1CCOCC1
39 | > 46 | Cc1ccc2nc(N)[nH]c(=O)c2c1Sc1ccncc1.Cl.Cl
40 | > 46 | CCN(CC)CCOC(=O)C1(c2ccccc2)CCCC1.CCN(CC)CCOC(=O)C1(c2ccccc2)CCCC1.O=S(=O)(O)CCS(=O)(=O)O
41 | > 46 | NCCc1cc[nH]n1
42 | > 46 | CC1CC(OC(=O)C(O)c2ccccc2)CC(C)(C)N1C.Cl (centres undefined)
43 | > 46 | OCC(CO)N[C@H]1C[C@](O)(CO)[C@@H](O)[C@H](O)[C@H]1O
44 | > 46 | CN1CCN(CCC(=O)N2c3ccccc3Sc3ccc(C(F)(F)F)cc32)CC1
45 | > 46 | Cc1cn([C@H]2C[C@H](N=[N+]=[N-])[C@@H](CO)O2)c(=O)[nH]c1=O
46 | > 46 | CC/C=C\C/C=C\C/C=C\C/C=C\C/C=C\CCCC(=O)O
47 | > 46 | O=c1[nH]c(=O)n(C2CCCO2)cc1F (centres undefined)
48 | > 46 | CCCCCNC(=N)N/N=C/c1c[nH]c2ccc(OC)cc12

Row | IC50 [µM] | Structure (SMILES)
49 | > 46 | CO/N=C(\C(=O)N[C@@H]1C(=O)N2C(C(=O)[O-])=CCS[C@H]12)c1csc(N)n1.[Na+]
50 | > 46 | COc1ccccc1N1CCN(CCCCNC(=O)c2ccc(-c3ccc(C(C)=O)cc3)cc2)CC1
51 | > 46 | CN(C)CCCN1c2ccccc2C(C)(C)c2ccccc21
52 | > 46 | O=C(Nc1ccc(C(=O)O)c(O)c1)c1ccccc1
53 | > 46 | Cc1[nH]c(=O)c(C#N)cc1-c1ccncc1
54 | > 46 | CC(=O)OC(C)C[N+](C)(C)C.[Cl-] (centres undefined)
55 | > 46 | NC(CSCC(=O)O)C(=O)O (centres undefined)
56 | > 46 | CCOC(C)OCC
57 | > 46 | CCC(=O)c1ccc(O)cc1
58 | > 46 | [Cl][In]([Cl])[Cl]
59 | > 46 | NC(=O)c1ncn([C@@H]2O[C@H](CO)[C@@H](O)[C@H]2O)c1O
60 | > 46 | OC(Cn1cncn1)(Cn1cncn1)c1ccc(F)cc1F
61 | > 46 | C1CNCCN1.C[C@H](CCC(=O)O)[C@H]1CC[C@H]2[C@@H]3[C@H](O)C[C@@H]4C[C@H](O)CC[C@]4(C)[C@H]3C[C@H](O)[C@]12C
62 | > 46 | CCN(CC)CCOC(=O)C(c1ccccc1)c1ccccc1.Cl
63 | > 46 | Cl.O=C(O)c1cn(-c2ccc(F)cc2)c2cc(N3CCNCC3)c(F)cc2c1=O
64 | > 46 | FC(F)(F)c1ccccc1-n1ccnc1
65 | > 46 | Nc1cc(-c2ccncc2)c[nH]c1=O
66 | > 46 | Nc1nc2c(ncn2COCCO)c(=O)[nH]1
67 | > 46 | COc1ccc2cc3[n+](cc2c1OC)CCc1cc2c(cc1-3)OCO2.[Cl-]
68 | > 46 | O=C1C2=C(C=C(C=C2O)O)O/C(=C\1O)C3=CC(=C(C=C3)O)O.O.O
69 | > 46 | CCOC(CN1CCN(CC(C)C(=O)c2ccccc2)CC1)c1ccccc1.Cl.Cl (centres undefined)
70 | > 46 | Cl.Cn1c(NCCN(CCO)CCCc2ccc([N+](=O)[O-])cc2)cc(=O)n(C)c1=O
71 | > 46 | O[C@]([C@H]3CN(CCC3)CC/C=C(C2=C(C)C=CS2)/C1=C(C)C=CS1)=O.Cl
72 | > 46 | O=C(Oc1cccc2cccnc12)c1ccccc1

Row | Structure (SMILES) | IC50 [µM]
73 | CCC1(c2ccc(N)cc2)CCC(=O)NC1=O (centres undefined) | > 46
74 | Cl.NC1C[C@H]1c1ccccc1 (some centres undefined) | > 46
75 | C[C@]43CCC(=O)\C=C4\CC[C@@H]1[C@@H]3CC[C@]2(C)[C@H](O)CC[C@@H]12 | > 46
76 | [C@@]2\1(\C(=C/C(/C=C/1)=O)CC[C@@H]4[C@@H]2CC[C@@]3(OC(=O)CC[C@H]34)C)C | > 46
77 | CC(C)C[C@H](CN)CC(=O)O | > 46
78 | CC[C@H]1OC(=O)C[C@@H](O)[C@H](C)[C@@H](O[C@@H]2O[C@H](C)[C@@H](O[C@H]3C[C@@](C)(O)[C@@H](O)[C@H](C)O3)[C@H](N(C)C)[C@H]2O)[C@@H](CC=O)C[C@@H](C)C(=O)/C=C/C(C)=C/[C@@H]1CO[C@@H]1O[C@H](C)[C@@H](O)[C@@H](OC)[C@H]1OC.O=C(O)[C@H](O)[C@@H](O)C(=O)O | > 46
79 | Cc1ccccc1 | > 46
80 | O=C1NCN(c2ccccc2)C12CCN(CCCOc1ccc(F)cc1)CC2 | > 46
81 | CCOC(=O)c1cccc(N)c1.CS(=O)(=O)O | > 46
82 | CC1=C2[C@H]3OC(=O)[C@@H](C)[C@@H]3CC[C@@]2(C)C=CC1=O | > 46
83 | CCC1(CC)C(=O)C=CNC1=O | > 46
84 | N#CN | > 46
85 | Cc1cccc(C)c1NC1=NCCCS1 | > 46
86 | CCC1(c2cccc(O)c2)CCCCN(C)C1.Cl (centres undefined) | > 46
87 | C[N+](C)(C)CCCCCCCCCC[N+](C)(C)C.[Br-].[Br-] | > 46
88 | NCCCNCCSP(=O)(O)O | > 46
89 | C1CCc2nnnn2CC1 | > 46
90 | CCCCCCCCC(=O)NCc1ccc(O)c(OC)c1 | > 46
91 | Cc1ccsc1/C=C/C1=NCCCN1C.O=C(O)[C@@H](O)[C@H](O)C(=O)O | > 46
92 | CCON=O | > 46
93 | CCN[C@@H]1C[C@H](N)[C@@H](OC2OC(CN)=CCC2N)[C@H](O)[C@H]1O[C@H]1OC[C@](C)(O)[C@H](NC)[C@H]1O.CCN[C@@H]1C[C@H](N)[C@@H](OC2OC(CN)=CCC2N)[C@H](O)[C@H]1O[C@H]1OC[C@](C)(O)[C@H](NC)[C@H]1O.O=S(=O)(O)O.O=S(=O)(O)O.O=S(=O)(O)O.O=S(=O)(O)O.O=S(=O)(O)O (some centres undefined) | > 46
94 | Cc1ccc2c(c1)C1CN(C)CCC1N2 (centres undefined) | > 46
95 | Cl.c1cc2c(c(N3CCNCC3)c1)OCCO2 | > 46
96 | CC[C@@H](CO)NC(=O)[C@@H]1C=C2c3cccc4c3c(cn4C)C[C@H]2N(C)C1 | > 46
97 | CNCCc1ccccn1.CS(=O)(=O)O | > 46
98 | CCNCC.O=S(=O)(O)c1cc(O)ccc1O | > 46
99 | [NH2][Pt]1([NH2])[O]C(=O)C2(CCC2)C(=O)[O]1 | > 46

Reference: the supplement of paper PMC3493320
